# Key:
# Assay in all cases: Kinase panel profiling at 1 µmol/L (MSA or IMAP), percentage inhibition
# Type in all cases: biochemical
# [1] = molecular target: panel of 255 wild-type kinases (Homo sapiens, UniProt P49137); conditions: kinase MAPKAPK2; 1 µmol/L single concentration; read-out: %-inhibition at 1 µmol/L, MAPKAPK2
# [2] = molecular target: panel of 255 wild-type kinases (Homo sapiens, UniProt P51617); conditions: kinase IRAK1; 1 µmol/L single concentration; read-out: %-inhibition at 1 µmol/L, IRAK1
# [3] = molecular target: panel of 255 wild-type kinases (Homo sapiens, UniProt Q02763); conditions: kinase TIE2; 1 µmol/L single concentration; read-out: %-inhibition at 1 µmol/L, TIE2
# [4] = molecular target: panel of 255 wild-type kinases (Homo sapiens, UniProt Q13555); conditions: CaMK2γ kinase assay; 1 µmol/L single concentration; read-out: %-inhibition CaMK2γ
# [5] = molecular target: panel of 255 wild-type kinases (Homo sapiens, UniProt Q14289); conditions: kinase PYK2; 1 µmol/L single concentration; read-out: %-inhibition at 1 µmol/L, PYK2
# [6] = molecular target: T1, panel of 255 wild-type kinases (Homo sapiens, UniProt Q8TDC3); conditions: BRSK1 kinase assay; 1 µmol/L single concentration; read-out: %-inhibition BRSK1
# T1 sequence (Q8TDC3 1-778): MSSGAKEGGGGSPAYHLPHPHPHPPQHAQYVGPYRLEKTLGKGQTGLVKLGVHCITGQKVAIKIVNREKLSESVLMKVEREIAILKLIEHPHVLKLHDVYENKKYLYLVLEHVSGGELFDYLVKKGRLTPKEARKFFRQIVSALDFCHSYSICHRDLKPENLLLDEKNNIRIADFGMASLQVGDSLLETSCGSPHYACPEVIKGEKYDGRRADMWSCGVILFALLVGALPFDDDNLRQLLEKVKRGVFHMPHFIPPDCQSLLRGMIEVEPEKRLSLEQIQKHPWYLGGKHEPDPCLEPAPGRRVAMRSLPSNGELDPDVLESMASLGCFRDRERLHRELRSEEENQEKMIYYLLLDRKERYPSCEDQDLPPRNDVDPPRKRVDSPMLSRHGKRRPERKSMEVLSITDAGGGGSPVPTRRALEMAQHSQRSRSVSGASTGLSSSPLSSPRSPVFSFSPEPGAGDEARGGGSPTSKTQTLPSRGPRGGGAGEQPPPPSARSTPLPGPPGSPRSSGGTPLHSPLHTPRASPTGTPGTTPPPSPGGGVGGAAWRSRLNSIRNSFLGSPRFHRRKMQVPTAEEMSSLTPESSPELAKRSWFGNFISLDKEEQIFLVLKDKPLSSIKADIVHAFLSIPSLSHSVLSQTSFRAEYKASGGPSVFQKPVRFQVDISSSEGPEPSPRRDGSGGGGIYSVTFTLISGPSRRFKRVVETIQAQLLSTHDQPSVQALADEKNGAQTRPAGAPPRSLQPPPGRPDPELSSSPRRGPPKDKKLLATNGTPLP
# [7] = molecular target: T2, panel of 255 wild-type kinases (Homo sapiens, UniProt Q96PY6); conditions: NEK1; 1 µmol/L single concentration; read-out: %-inhibition, NEK1
# T2 sequence (Q96PY6 1-1258): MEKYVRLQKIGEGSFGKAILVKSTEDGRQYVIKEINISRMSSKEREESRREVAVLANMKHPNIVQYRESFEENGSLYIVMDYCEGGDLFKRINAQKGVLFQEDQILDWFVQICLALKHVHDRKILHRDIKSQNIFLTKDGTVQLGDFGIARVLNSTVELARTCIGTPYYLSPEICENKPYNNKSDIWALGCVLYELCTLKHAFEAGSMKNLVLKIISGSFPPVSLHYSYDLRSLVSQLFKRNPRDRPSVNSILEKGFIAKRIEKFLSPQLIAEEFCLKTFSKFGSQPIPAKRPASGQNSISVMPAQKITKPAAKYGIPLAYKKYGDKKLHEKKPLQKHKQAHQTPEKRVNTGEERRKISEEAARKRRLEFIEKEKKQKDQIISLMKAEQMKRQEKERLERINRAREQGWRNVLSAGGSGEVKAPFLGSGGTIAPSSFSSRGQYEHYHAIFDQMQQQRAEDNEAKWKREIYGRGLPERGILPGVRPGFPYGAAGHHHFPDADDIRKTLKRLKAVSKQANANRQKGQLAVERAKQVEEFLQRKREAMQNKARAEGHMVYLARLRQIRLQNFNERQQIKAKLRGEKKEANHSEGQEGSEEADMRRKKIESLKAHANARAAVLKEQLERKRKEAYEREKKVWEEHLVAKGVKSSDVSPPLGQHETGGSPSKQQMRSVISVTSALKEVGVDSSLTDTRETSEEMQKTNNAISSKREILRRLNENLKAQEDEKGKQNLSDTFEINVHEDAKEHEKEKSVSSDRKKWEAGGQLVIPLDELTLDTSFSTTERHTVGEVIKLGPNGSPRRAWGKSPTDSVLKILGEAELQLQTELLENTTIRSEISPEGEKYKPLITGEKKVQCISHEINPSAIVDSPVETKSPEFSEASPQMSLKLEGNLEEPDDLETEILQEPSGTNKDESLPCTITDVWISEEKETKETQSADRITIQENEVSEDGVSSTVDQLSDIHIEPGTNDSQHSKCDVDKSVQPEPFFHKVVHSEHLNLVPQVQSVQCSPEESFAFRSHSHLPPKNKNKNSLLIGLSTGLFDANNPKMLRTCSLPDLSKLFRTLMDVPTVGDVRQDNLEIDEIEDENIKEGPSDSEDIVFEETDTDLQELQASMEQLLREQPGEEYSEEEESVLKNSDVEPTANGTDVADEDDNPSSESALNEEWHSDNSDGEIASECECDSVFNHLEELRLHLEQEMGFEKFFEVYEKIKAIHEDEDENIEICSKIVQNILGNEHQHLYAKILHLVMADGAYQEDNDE
# [8] = molecular target: T3, panel of 255 wild-type kinases (Homo sapiens, UniProt Q9UQB9); conditions: AurC kinase assay; 1 µmol/L single concentration; read-out: %-inhibition AurC
# T3 sequence (Q9UQB9 1-309): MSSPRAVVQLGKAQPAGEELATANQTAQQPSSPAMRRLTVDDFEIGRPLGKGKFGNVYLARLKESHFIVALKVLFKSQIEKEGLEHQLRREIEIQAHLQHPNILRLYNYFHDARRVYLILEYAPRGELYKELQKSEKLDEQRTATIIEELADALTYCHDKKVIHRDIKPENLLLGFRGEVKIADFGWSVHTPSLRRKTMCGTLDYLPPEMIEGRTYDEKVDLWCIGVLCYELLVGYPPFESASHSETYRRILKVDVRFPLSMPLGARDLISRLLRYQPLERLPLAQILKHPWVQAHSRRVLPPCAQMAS
Compound,inhibition at 1 µM [1] [%],inhibition at 1 µM [2] [%],inhibition at 1 µM [3] [%],inhibition at 1 µM [4] [%],inhibition at 1 µM [5] [%],inhibition at 1 µM [6] [%],inhibition at 1 µM [7] [%],inhibition at 1 µM [8] [%]
CCn1c(=O)c(-c2cc(NC(=O)Nc3ccccc3)c(F)cc2Br)cc2cnc(NC)cc21 [ripretinib],-24,-5.68,79,0.397,19,1.77,-1.3,0.523
Cn1cnc2c(F)c(Nc3ccc(Br)cc3Cl)c(C(=O)NOCCO)cc21 [selumetinib],-5,-2.71,-9,-3,-0.622,-1.75,-5,-0.456
C=CC(=O)N1CCC([C@@H]2CCNc3c(C(N)=O)c(-c4ccc(Oc5ccccc5)cc4)nn32)CC1 [zanubrutinib],-9,-2.53,2,1.6,5.37,-1.87,-4,-0.855

# The next lines start with the values.
inhibition at 1 µM [1] [%],inhibition at 1 µM [2] [%],inhibition at 1 µM [3] [%],inhibition at 1 µM [4] [%],inhibition at 1 µM [5] [%],inhibition at 1 µM [6] [%],inhibition at 1 µM [7] [%],inhibition at 1 µM [8] [%],Compound
-5.47,5,43,0.226,12,36,-0.568,80,COc1ccc(CN2C3CC2CN(c2ccc(-c4cc(OCC(C)(C)O)cn5ncc(C#N)c45)cn2)C3)cn1 [selpercatinib]
-28,4.63,-2.82,-5,1.48,0.339,1.77,-5.26,Cc1cc(Nc2ncnc3ccc(NC4=NC(C)(C)CO4)cc23)ccc1Oc1ccn2ncnc2c1 [tucatinib]
